Reference: patent US20240084353A1, “PROCESS TO PRODUCE MONO-RHAMNOLIPIDS” (Conopco, Inc., d/b/a UNILEVER, priority 2021, published 2024)

System: α-L-rhamnosidase from A. terreus
Test: Influence of rhamnose excess on rhamnosidase activity (product inhibition)
Type: biochemical, Aspergillus terreus
Details: pNPR substrate, rhamnose solutions 0.6-3 mM added 1:1:1, pH 6.5, 40° C., 30 minutes
Protocol: The activity is expressed as the changes in time of the relative absorbance at 405 nm. The absorbance was measured every 30 sec. Substrate was used at 100 μM. The analysis was performed only for α-l-rhamnosidase from A. terreus. The influence of rhamnose excess on enzyme activity was investigated using the same colorimetric method as described above (See FIG. 1). The pNPR substrate was first dissolved in DMSO, with concentration adjusted to 300 μM in 100 mM sodium phosphate buffer pH 6.5. Enzymes were diluted to concentration of 30 μg/mL in 100 mM sodium phosphate buffer pH 6.5. Following sequence of rhamnose concentrations were prepared in 100 mM sodium phosphate buffer pH 6.5: 0.6 mM, 1.2 mM, 1.8 mM, 2.4 mM, 3 mM. 240 μL of the total reaction mixture was prepared by adding the substrate solution, the enzyme solution and the rhamnose solution in 1:1:1 ratio. The activity assay was performed on 96-well Microtiter UV plate by Thermo Scientific (Waltham, MA USA). All reactions were done at pH 6.5 and in temperature 40° C. The changes in absorbance were monitored at 405 nm for 30 minutes in Microplate reader Varioskan® Flash.

## C[C@H](O)[C@H](O)[C@@H](O)[C@@H](O)C=O [rhamnose]
  substrate conversion rate with increasing amount of rhamnose added: decreased
